From PMC8591608, “DNDI-6148: A Novel Benzoxaborole Preclinical Candidate for the Treatment of Visceral Leishmaniasis” (Journal of Medicinal Chemistry, 2021)
Like-named read-outs stand apart in the source and are kept apart here.

Key:
[1] = test system: CPSF3-overexpressing L. donovani promastigotes; experiment: Drug sensitivity, CPSF3-overexpressing L. donovani promastigotes; format: cell-based; conditions: Leishmania donovani
Protocol: (§1) The clonal L. donovani cell line LdBOB (derived from MHOM/SD/62/1S-CL2D) was grown as promastigotes at 28 °C, as described previously. Bloodstream form T. brucei MiTat 1.2 clone 221a and its derived subline, 2T1, were cultured at 37 °C in the presence of 5% CO2 in HMI9-T medium, as described previously. T. brucei cell lines overexpressing CPSF3 and overexpressing a mutated version of CPSF3 (Asn232His) were generated as part of a previous study and cultured as described.[19]
(§2) L. donovaniCPSF3 gene (LdBPK_343210.1) was custom synthesized by GeneArt and ligated into the pIR1SAT vector via BglII restriction sites. Using the Q5 mutagenesis kit (NEB) and the pIR1SAT-LdCPSF3^WT construct as a template, mutations encoding A655C and Asn219His change to CPSF3^WT were introduced. Mutations were introduced using the specific primers 5′-GAGTACACGGCATCCGC-3′ and 5′-[…]-3′ and as per manufacturers’ instructions. Wild-type and mutated pIR1SAT constructs were digested with SwaI and transfected into L. donovani promastigotes, as previously described. Resistant clones were selected with nourseothricin (100 μg/mL), and two clones per transfection were selected for further study.
(§3) Drug sensitivity assays with wild-type and transgenic T. brucei and L. donovani cell lines were carried out as previously described.[31],[32]

L. infantum [2] = experiment: Intramacrophage L. infantum assay; format: cell-based; conditions: Leishmania infantum
Protocol: (§4) L. infantum (MHOM/MA/67/ITMAP263) and L. donovani (MHOM/ET/67/L82) were maintained in the golden (Syrian) hamster (Mesocricetus auratus). Ex vivo amastigotes were collected from the spleen of an infected donor hamster using two centrifugation purification steps: 230g for 10 min, keeping the supernatant layer, and 4100g for 30 min, keeping the pellet. The spleen parasite burden was assessed using the Stauber technique.[25] For in vitro assays, the inoculum was prepared in RPMI-1640 medium, supplemented with 200 mM L-glutamine, 16.5 mM NaHCO3, and 5% inactivated fetal calf serum. For the in vivo model, an infection inoculum containing 2 × 10^7 amastigotes/100 μL was prepared in phosphate-buffered saline (PBS).
(§5) The assay was performed in sterile 96-well microtiter plates, each well containing 10 μL of the compound dilution and 190 μL of the PMM/amastigote inoculum (3 × 10^4 cells/4.5 × 10^5 parasites per well). Parasite multiplication was compared to untreated infected controls (100% growth) and uninfected controls (0% growth). After five-day incubation, total parasite burdens were microscopically assessed after staining the cells with a 10% Giemsa solution. The results were expressed as a percentage reduction in parasite burden compared to untreated control wells. EC50 values were determined using an extended dose range (2-fold compound dilutions, 8-point concentration curve). Miltefosine was used as the reference drug.[26] For selected compounds, this assay format was also run using the L. donovani inoculum.

[3] = test system: CPSF3 (Asn219His)-overexpressing L. donovani promastigotes; experiment: Drug sensitivity, CPSF3 (Asn219His)-overexpressing L. donovani promastigotes; format: cell-based; conditions: for EC50: Leishmania donovani
Protocol: as §1, §2, §3

[4] = test system: wild-type L. donovani promastigotes; experiment: Drug sensitivity, wild-type L. donovani promastigotes; format: cell-based; conditions: Leishmania donovani
Protocol: as §1, §3

Trypanosoma brucei = test system: Trypanosoma brucei; set-up: method as in PMID 21738803; conditions: in vitro; read-out: EC50 against Trypanosoma brucei; cited from earlier work
L. donovani = experiment: Intramacrophage L. donovani assay; format: cell-based; conditions: for EC50: Leishmania donovani
Protocol: as §4, §5

PMM cytotoxicity assay = format: cell-based; conditions: mouse, primary peritoneal mouse macrophages (PMM); for EC50 at 3 days: Table 2, geometric mean of at least three independent assays
Protocol: (§6) Primary peritoneal mouse macrophages (PMM) were collected two days after peritoneal stimulation with a 2% potato starch suspension. MRC5SV2 cells (diploid human embryonic lung fibroblasts) were cultured in minimal essential medium (MEM) containing Earle’s salts, supplemented with L-glutamine, NaHCO3, and 5% inactivated fetal calf serum. All cultures and assays were conducted at 37 °C under an atmosphere of 5% CO2.
(§7) Assays were performed in sterile 96-well microtiter plates, each well containing 10 μL of the compound dilution and 190 μL of MRC5SV2 or PMM inoculum (3 × 10^4 cells/mL). Cell growth was compared to untreated controls (100% growth) and assay-media controls (0% growth). After three-day incubation, cell viability was assessed fluorometrically by adding resazurin (50 μL/well of a stock solution in phosphate buffer (50 μg/mL)), incubating for 4 h and measuring fluorescence (λex 550 nm, λem 590 nm). The results were expressed as a percentage reduction in cell growth compared to untreated control wells. […] Tamoxifen was included as the reference drug.

MRC5 cytotoxicity assay = format: cell-based; conditions: human, MRC5SV2 cells (human embryonic lung fibroblasts), geometric mean of at least two independent tests
Protocol: as §6, §7

L. infantum [5] = experiment: L. infantum hamster model of VL; format: in vivo
Protocol: as §4
Female golden hamsters for the in vivo model of visceral leishmaniasis were purchased from Janvier, France (body weight 80–100 g). This study using laboratory rodents was carried out in strict accordance with all mandatory guidelines (EU directives, including the Revised Directive 2010/63/EU on the protection of Animals used for Scientific Purposes that came into force on 01/01/2013, and the declaration of Helsinki in its latest version) and was approved by the ethical committee of the University of Antwerp, Belgium (UA-ECD 2011-74). Female golden hamsters for the pharmacokinetic study were purchased from Vital River, Beijing, China. This study was conducted following institutional review and in accordance with institutional and national guidelines at WuXi AppTec (the Institutional Animal Care and Use Committee (IACUC)). Balb/c mice for the in vivo model of visceral leishmaniasis (LSHTM) were purchased from Charles River, U.K., and related studies were conducted under license PPL 70/8427 from the U.K. Home Office.
Female golden hamsters were randomly allocated to experimental groups of six animals each, based on body weight. At the start of the experiment (Day 0), each animal was infected with L. infantum or L. donovani inoculum, delivered by intracardial injection. Six hamsters were assigned to the vehicle-treated, infected control group. Six hamsters were assigned per group (1 group/compound) for the evaluation of compound and miltefosine. […] At Day 35 (10 days after the final oral dose), all animals were euthanized and autopsies were conducted. The study evaluated the following parameters. • 1. Adverse effects: all animals were observed daily for the occurrence/presence of adverse effects. • 2. Body weight: all animals were weighed twice per week to monitor general health. • 3. Parasite burden: amastigote burdens in each target organ (liver, spleen, and bone marrow) were determined at Day 35. The organs of individual animals were weighed (except for bone marrow). Impression smears were stained with Giemsa for microscopic examination of the total amastigote burden, defined as the mean number of amastigotes per cell multiplied by the number of cells counted (minimum 500 nuclei); the results were expressed as a percentage reduction in amastigote burden compared to vehicle-treated, infected control animals.

[6] = Liver microsome stability, human; format: in vitro ADME; conditions: human liver microsomes
Protocol: (§8) Tests were performed by WuXi AppTec, China. Test compounds (at 1 μM) or positive controls (testosterone, propafenone, and diclofenac) were incubated at 37 °C with liver microsomes from Balb/c mouse, golden (Syrian) hamster, Sprague-Dawley rat, Beagle dog, or human in the presence of a NADPH regenerating system and phosphate buffer (100 mM, pH 7.4) at 0.4 or 0.8 mg/mL microsomal protein. The samples were removed at time intervals from 0 to 60, 90, or 120 min and immediately mixed with cold methanol supplemented or not with acid (3% formic acid) and centrifuged prior to analysis by LC-MS/MS using tolbutamide or propranolol as internal standards.

[7] = Hamster oral pharmacokinetic study; format: in vivo, golden Syrian hamsters; conditions: female, golden Syrian, plasma
Protocol: […] The K2-EDTA anticoagulant was added to blood samples collected from 0.25 to 36 h, which were processed to plasma and stabilized with phosphoric acid (1% final) before analysis by LC-MS/MS. PK parameters were calculated using WinNonlin software (version 6.3).

[8] = Liver microsome stability, hamster; format: in vitro ADME; conditions: golden (Syrian), hamster liver microsomes
Protocol: as §8

[9] = Table 2, geometric mean of at least three independent assays, read-out: intramacrophage L. infantum EC50
[10] = Table 2, geometric mean of at least three independent assays
[11] = pH 7.4, Table 4, read-out: HLM Clint
[12] = Table 4, geometric mean of at least two independent tests
[13] = Table 6, geometric mean of at least two independent tests

In the case of `CC1(C)OB(O)c2cc(NC(=O)c3ccc(F)cc3C(F)(F)F)ccc21` [Compound 1, acoziborole, reference compound], the EC50 [1] is reported as 2.8 ± 0.1 µM, the EC50 (L. infantum [2]; [9]) is reported as greater than 64 µM and the EC50 [3] is reported as 11.7 ± 0.4 µM. For the same compound, the “fold reduction in susceptibility” value ([3]; promastigotes overexpressing mutated CPSF3) was 5 fold, the EC50 [4] was 2.5 ± 0.1 µM and the EC50 (Trypanosoma brucei) was 0.795 µM. The EC50 (L. donovani; [10]) was 59 µM, the EC50 at 3 days (PMM cytotoxicity assay) was greater than 64 µM and the CC50 at 3 days (PMM cytotoxicity assay; supplement csv) was greater than 64 µM.
Work on `O=C(Nc1ccc2c(c1)B(O)OC2)c1ccc(F)cc1C(F)(F)F` [Compound 3] yielded an EC50 [1] of 1.4 ± 0.03 µM, an EC50 (L. infantum [2]; [9]) of 2.7 µM and an EC50 [3] of 4.4 ± 0.2 µM. For the same compound, the EC50 [4] was 1.2 ± 0.02 µM, the CC50 at 3 days (MRC5 cytotoxicity assay; Table 4) was greater than 64 µM and the “reduction in parasite burden, bone marrow” value (L. infantum [5]; 25 mg/kg QD for 5 days) was 81.6%. For the same compound, the “reduction in parasite burden, spleen” value (L. infantum [5]; 25 mg/kg QD for 5 days) was 81.8%, the “reduction in parasite burden, liver” value (L. infantum [5]; 25 mg/kg QD for 5 days, vs vehicle-treated infected controls) was 87.8% and the “reduction in parasite burden, bone marrow” value (L. infantum [5]; 50 mg/kg QD for 5 days) was 91.2%. The “reduction in parasite burden, liver” value (L. infantum [5]; 50 mg/kg QD for 5 days) was 97.4%, the “reduction in parasite burden, spleen” value (L. infantum [5]; 50 mg/kg QD for 5 days) was 95.0% and the “reduction in parasite burden, bone marrow” value (L. infantum [5]; 100 mg/kg QD for 5 days) was 88.3%. For the same compound, the “reduction in parasite burden, liver” value (L. infantum [5]; 100 mg/kg QD for 5 days) was 98.6%, the “reduction in parasite burden, spleen” value (L. infantum [5]; 100 mg/kg QD for 5 days) was 96.0% and the microsomal CLint at 2 h, 1 µM [6, 11] was 0.8 µL/min/mg. The EC50 (L. donovani; [10]) was 1.2 µM, the EC50 at 3 days (PMM cytotoxicity assay) was greater than 64 µM and the CC50 at 3 days (PMM cytotoxicity assay; [12]) was greater than 64 µM.
`Cc1c(C(=O)Nc2ccc3c(c2)B(O)OC3)cnn1-c1ccccn1` [Compound 16, N-(1-Hydroxy-1,3-dihydrobenzo[c][1,2]oxaborol-6-yl)-5-methyl-1-(pyridin-2-yl)-1H-pyrazole-4-carboxamide] gave an EC50 (L. infantum [2]; Table 4, geometric mean of at least two independent tests, read-out: intramacrophage L. infantum EC50) of 3.1 µM, an AUC(0-t) ([7]; study run using a single 25 mg/kg p.o. dose, read-out: AUC0–24 after single p.o. dose) of 7900 ng·h/mL and a microsomal CLint at 2 h, 1 µM ([8]; pH 7.4, Table 4, read-out: HamLM Clint) of 57 µL/min/mg. For the same compound, the CC50 at 72 h (MRC5 cytotoxicity assay; Table 4) was 61 µM, the CC50 at 3 days (MRC5 cytotoxicity assay; Table 6) was 61.1 µM and the “reduction in parasite burden, bone marrow, 5 days” value (“reduction … bone marrow, 5 days” for short) (L. infantum [5]; 25 mg/kg BID p.o. for 5 days) was 72.2%. For the same compound, the “reduction in parasite burden, liver, 5 days” value (“reduction … liver, 5 days” for short) (L. infantum [5]; 25 mg/kg BID p.o. for 5 days) was 87.8%, the “reduction in parasite burden, spleen, 5 days” value (shortened to “reduction … spleen, 5 days”) (L. infantum [5]; 25 mg/kg BID p.o. for 5 days) was 87.7% and the “reduction … bone marrow, 5 days” value (L. infantum [5]; 50 mg/kg BID p.o. for 5 days) was 95.1%. For the same compound, the “reduction … liver, 5 days” value (L. infantum [5]; 50 mg/kg BID p.o. for 5 days) was 99.6%, the “reduction … spleen, 5 days” value (L. infantum [5]; 50 mg/kg BID p.o. for 5 days) was 98.5% and the microsomal CLint at 1 μM [6, 11] was less than 11.9 µL/min/mg. It also gave an EC50 (L. donovani; [13]) of 1.2 µM, a CC50 at 72 h (PMM cytotoxicity assay; [12]) of 59 µM and a CC50 at 3 days (PMM cytotoxicity assay; [13]) greater than 64 µM.
Work on `O=C(Nc1ccc2c(c1)B(O)OC2)c1nnc(-c2ccccn2)o1` [Compound 31, N-(1-Hydroxy-1,3-dihydrobenzo[c][1,2]oxaborol-6-yl)-5-(pyridin-2-yl)-1,3,4-oxadiazole-2-carboxamide] yielded an EC50 (L. infantum [2]; Table 5, geometric mean of at least two independent tests, read-out: intramacrophage L. infantum amastigote EC50) of 2 µM, an AUC(0-t) ([7]; single p.o. dose 50 mg/kg, read-out: AUC0–24 after single p.o. dose of 50 mg/kg) of 21000 ng·h/mL and a microsomal CLint at 2 h, 1 µM ([8]; pH 7.4, Table 5, read-out: HamLM Clint) of 12 µL/min/mg. For the same compound, the CC50 at 3 days (MRC5 cytotoxicity assay; Table 5) was greater than 64 µM, the “reduction … bone marrow, 5 days” value (L. infantum [5]; 25 mg/kg BID p.o. for 5 days) was 55.0% and the “reduction … liver, 5 days” value (L. infantum [5]; 25 mg/kg BID p.o. for 5 days) was 67.3%. The “reduction … spleen, 5 days” value (L. infantum [5]; 25 mg/kg BID p.o. for 5 days) was 69.0%, the “reduction … bone marrow, 5 days” value (L. infantum [5]; 50 mg/kg BID p.o. for 5 days) was 99.7% and the “reduction … liver, 5 days” value (L. infantum [5]; 50 mg/kg BID p.o. for 5 days) was 99.4%. The “reduction … spleen, 5 days” value (L. infantum [5]; 50 mg/kg BID p.o. for 5 days) was 99.4%, the microsomal CLint at 2 h, 1 µM ([6]; pH 7.4, Table 5, read-out: HLM Clint) was 19 µL/min/mg and the EC50 (L. donovani; [13]) was 9.4 µM. For the same compound, the “fold weaker against L. donovani compared with L. infantum potency” value (L. donovani; intramacrophage potency) was “about 5 fold” and the CC50 at 3 days (PMM cytotoxicity assay; Table 5, geometric mean of at least two independent tests) was greater than 64 µM.
